Assay results taken from article PMC7689250, “Synthetic Peptide Libraries Designed From a Minimal Alpha-Helical Domain of AS-48-Bacteriocin Homologs Exhibit Potent Antibacterial Activity” (Frontiers in Microbiology, 2020).
Residues, ends and D or L forms follow the SMILES beside them.

Key:
P. aeruginosa (PAO1) = type: cell-based, Pseudomonas aeruginosa; conditions: for MBC: PAO1; for MIC: PAO1, 16 h
Experimental: (§1) Peptides were screened against Escherichia coli (BL21), Streptococcus pyogenes (M1T1 5448, hereby referred to as M1), Pseudomonas aeruginosa (PAO1), and Staphylococcus aureus (USA300). Overnight bacterial cultures were grown in optimal media for each species: Luria-Bertani (LB) broth for E. coli, P. aeruginosa, and S. aureus, and Todd-Hewitt (TH) broth for S. pyogenes. Cultures were pelleted and re-suspended in Mueller-Hinton (MH) broth for peptide screens or minimal inhibitory concentration (MIC) assays, with 1 × 10^6 CFU/mL bacteria added per well ([Wiegand et al., 2008]). MICs for each parent peptide were identified against each bacterial strain as previously described ([Fields et al., 2018]). Members of each peptide library were screened against each bacterial strain at half of the MIC of the corresponding parent peptide to identify library members with increased antimicrobial activity relative to the parent peptide. […] Minimal bactericidal concentrations (MBCs) were determined following the respective MIC assays by plating aliquots from wells corresponding to each peptide concentration from the 96-well plate used for the MIC on species-appropriate agar. Plates were incubated at 37°C overnight, and MBCs were identified as the lowest concentrations of peptide at which no colonies were obtained. A Synergy H1 Microplate Reader (BioTek, Winooski, VT, United States) was used to determine the MICs and identify peptides with greater antimicrobial activity than the corresponding parent peptide by measuring OD 600 of the bacterial cultures in 96-well microtiter plates.

S. aureus (USA300) = type: cell-based, Staphylococcus aureus; conditions: for MBC: USA300; for MIC: USA300, 16 h
Experimental: as §1

E. coli (BL21) = type: cell-based, Escherichia coli; conditions: for MBC: BL21; for MIC: BL21, 16 h
Experimental: as §1

S. pyogenes (M1) = type: cell-based, Streptococcus pyogenes; conditions: for MBC: M1; for MIC: M1, 16 h
Experimental: as §1

Compound	MBC (P. aeruginosa (PAO1)) [µM]	MIC (P. aeruginosa (PAO1)) [µM]	MBC (S. aureus (USA300)) [µM]	MIC (S. aureus (USA300)) [µM]	MBC (E. coli (BL21)) [µM]	MIC (E. coli (BL21)) [µM]	MBC (S. pyogenes (M1)) [µM]	MIC (S. pyogenes (M1)) [µM]
CC[C@H](C)[C@H](NC(=O)[C@H](CCCCN)NC(=O)[C@H](CCCCN)NC(=O)[C@H](CCCCN)NC(=O)[C@H](CC(C)C)NC(=O)[C@H](Cc1ccccc1)NC(=O)[C@H](CCC(N)=O)NC(=O)[C@H](CCCNC(=N)N)NC(=O)[C@@H](NC(=O)[C@@H](NC(=O)[C@H](CCC(=O)O)NC(=O)[C@H](CCCCN)NC(=O)CNC(=O)[C@H](C)N)[C@@H](C)O)[C@@H](C)CC)C(=O)N[C@@H](CCC(N)=O)C(=O)N[C@@H](CCC(=O)O)C(=O)N[C@@H](CCCCN)C(=O)NCC(=O)N[C@@H](CCCCN)C(=O)N[C@@H](CCCNC(=N)N)C(=O)N[C@@H](C)C(=O)N[C@H](C(=O)N[C@H](C(=O)N[C@@H](C)C(=O)N[C@@H](Cc1c[nH]c2ccccc12)C(=O)O)[C@@H](C)CC)[C@@H](C)O [Syn-larvacin-1] (H-AGKETIRQFLKKKIQEKGKRATIAW-OH; N-terminus and C-terminus assumed)	>128	>128	>128	>128	>128	32	64	8
CC[C@H](C)[C@H](NC(=O)[C@H](CCCCN)NC(=O)[C@H](CCCCN)NC(=O)CNC(=O)[C@H](CCC(=O)O)NC(=O)[C@H](CCC(N)=O)NC(=O)[C@@H](NC(=O)[C@H](Cc1c[nH]c2ccccc12)NC(=O)[C@H](CCCCN)NC(=O)[C@H](CCCCN)NC(=O)[C@H](CC(C)C)NC(=O)[C@H](CCCNC(=N)N)NC(=O)[C@H](CCC(N)=O)NC(=O)[C@H](Cc1ccccc1)NC(=O)[C@@H](NC(=O)[C@H](CCCCN)NC(=O)[C@H](CCC(=O)O)NC(=O)[C@@H](NC(=O)CNC(=O)[C@H](C)N)[C@@H](C)O)[C@@H](C)CC)[C@@H](C)CC)C(=O)N[C@@H](C)C(=O)N[C@@H](CCCCN)C(=O)N[C@@H](CCCNC(=N)N)C(=O)N[C@@H](C)C(=O)N[C@@H](Cc1c[nH]c2ccccc12)C(=O)O [Syn-larvacin-31] (H-AGTEKIFQRLKKWIQEGKKIAKRAW-OH; N-terminus and C-terminus assumed)	128	64	8	8	1	1	0.25	0.25
CC[C@H](C)[C@H](NC(=O)[C@H](CCCCN)NC(=O)[C@H](CCCCN)NC(=O)[C@H](Cc1c[nH]c2ccccc12)NC(=O)[C@H](CCC(=O)O)NC(=O)[C@H](CC(N)=O)NC(=O)[C@@H](NC(=O)[C@@H](NC(=O)[C@H](CCCCN)NC(=O)[C@H](CCCCN)NC(=O)[C@H](CC(C)C)NC(=O)[C@H](CCCNC(=N)N)NC(=O)[C@H](CC(N)=O)NC(=O)[C@H](Cc1ccccc1)NC(=O)[C@@H](NC(=O)[C@H](CCCCN)NC(=O)[C@H](CCC(=O)O)NC(=O)[C@@H](NC(=O)CNC(=O)[C@H](C)N)[C@@H](C)O)[C@@H](C)CC)[C@@H](C)O)[C@@H](C)CC)C(=O)N[C@@H](C)C(=O)N[C@@H](CCCCN)C(=O)N[C@@H](CCCNC(=N)N)C(=O)N[C@@H](C)C(=O)N[C@@H](Cc1c[nH]c2ccccc12)C(=O)O [Syn-larvacin-48] (H-AGTEKIFNRLKKTINEWKKIAKRAW-OH; N-terminus and C-terminus assumed)	32	16	8	8	4	4	8	8
CC[C@H](C)[C@H](NC(=O)[C@H](CCC(=O)O)NC(=O)[C@H](CCCNC(=N)N)NC(=O)[C@H](CCCNC(=N)N)NC(=O)[C@H](CC(C)C)NC(=O)[C@H](Cc1ccc(O)cc1)NC(=O)[C@H](C)NC(=O)[C@H](CCCCN)NC(=O)[C@@H](NC(=O)[C@@H](NC(=O)[C@H](CCC(N)=O)NC(=O)[C@H](CCCNC(=N)N)NC(=O)CNC(=O)[C@H](C)N)[C@@H](C)O)[C@@H](C)CC)C(=O)N[C@@H](CCCNC(=N)N)C(=O)N[C@@H](CCCCN)C(=O)N[C@@H](CCCNC(=N)N)C(=O)NCC(=O)N[C@@H](CCCNC(=N)N)C(=O)N[C@@H](CCCCN)C(=O)N[C@@H](C)C(=O)N[C@H](C(=O)N[C@H](C(=O)N[C@@H](C)C(=O)N[C@@H](Cc1c[nH]c2ccccc12)C(=O)O)[C@@H](C)CC)C(C)C [Syn-sordellicin-1] (H-AGRQTIKAYLRREIRKRGRKAVIAW-OH; N-terminus and C-terminus assumed)	16	16	>128	>128	8	8	8	8
CC[C@H](C)[C@H](NC(=O)[C@H](CCCNC(=N)N)NC(=O)[C@H](C)NC(=O)[C@H](CCCCN)NC(=O)[C@H](CCCNC(=N)N)NC(=O)CNC(=O)[C@@H](NC(=O)[C@H](CCCCN)NC(=O)[C@H](CCCNC(=N)N)NC(=O)[C@@H](NC(=O)[C@H](CCC(=O)O)NC(=O)[C@H](CCCNC(=N)N)NC(=O)[C@H](CCCNC(=N)N)NC(=O)[C@H](CC(C)C)NC(=O)[C@H](Cc1ccc(O)cc1)NC(=O)[C@H](C)NC(=O)[C@H](CCCCN)NC(=O)[C@@H](NC(=O)[C@H](Cc1c[nH]c2ccccc12)NC(=O)[C@H](CCC(N)=O)NC(=O)[C@H](CCCNC(=N)N)NC(=O)CNC(=O)[C@H](C)N)[C@@H](C)CC)[C@@H](C)CC)C(C)C)C(=O)N[C@@H](C)C(=O)N[C@@H](Cc1c[nH]c2ccccc12)C(=O)O [Syn-sordellicin-45] (H-AGRQWIKAYLRREIRKVGRKARIAW-OH; N-terminus and C-terminus assumed)	32	16	32	32	1	1	2	2
CC[C@H](C)[C@H](NC(=O)[C@H](Cc1ccccc1)NC(=O)[C@H](C)NC(=O)[C@H](CCCCN)NC(=O)[C@H](CCCCN)NC(=O)CNC(=O)[C@H](CCCNC(=N)N)NC(=O)[C@H](CCCCN)NC(=O)[C@H](CCCNC(=N)N)NC(=O)[C@H](CC(C)C)NC(=O)[C@H](CCC(=O)O)NC(=O)[C@H](CCC(=O)O)NC(=O)[C@H](CCCCN)NC(=O)[C@H](CC(C)C)NC(=O)[C@H](Cc1ccc(O)cc1)NC(=O)[C@H](CC(C)C)NC(=O)[C@@H](NC(=O)[C@H](CC(C)C)NC(=O)[C@H](C)NC(=O)[C@H](CCC(N)=O)NC(=O)[C@H](CCCNC(=N)N)NC(=O)CNC(=O)[C@H](C)N)[C@@H](C)O)C(=O)N[C@@H](C)C(=O)N[C@@H](Cc1c[nH]c2ccccc12)C(=O)O [Syn-xiamencin-1] (H-AGRQALTLYLKEELRKRGKKAFIAW-OH; N-terminus and C-terminus assumed)	>128	>128	>128	>128	32	32	16	16
